{"source": "paper PMC10952572", "about": "“Improved PIEZO1 agonism through 4‐benzoic acid modification of Yoda1” (British Journal of Pharmacology, 2023)", "key": {"[1]": {"assay": "Plasma protein binding by rapid equilibrium dialysis", "format": "in vitro ADME", "conditions": "RED", "protocol": "Mouse plasma protein binding was measured by rapid equilibrium dialysis (RED) performed by Malvern Panalytical (UK). Briefly, mouse plasma was warmed to 37°C for 10 min, and test compound stock solution was added to achieve a 5 μM solution; 500 μl of dialysis buffer was added to one side of the chamber of the device insert (Piercenet, Dialysis membrane MWCO 8000) housed within a heated Teflon block, and the incubation was initiated by the addition of 300 μl of the test compound protein solution to the opposite chamber. Equilibrium was reached by shaking the device on an orbital mixer at 37°C for 4 h; 50 μl aliquots from the buffer and the plasma chambers were transferred into separate wells of a deep‐well plate; 50 μl of plasma was added to the buffer samples, and 50 μl of buffer was added to the plasma samples; 300 μl of ice‐cold acetonitrile containing internal standard was added to precipitate the protein. Samples were then centrifuged (2700 × g at 4°C for 20 min) to pellet the protein, and the supernatant was analysed by LC–MS/MS to quantify the % input compound unbound to plasma protein with reference to a standard curve."}, "[2]": {"tested_on": "30 proteins including ion channels and receptors", "assay": "Eurofins Hit Profiling Screen PP70: remaining targets", "format": "binding", "conditions": "5 μM; targets other than A2A and EP4", "protocol": "(§1) These experiments were performed by Eurofins Scientific, and the methods below are from this company's information. Membrane protein/membrane amounts may have varied, and the concentrations used were adjusted as necessary. KC289 was tested at 5 μM."}, "[3]": {"target": "T1, human adenosine A2A receptors (Homo sapiens, UniProt P29274)", "T1 construct": "host or cells: HEK 293 membranes", "T1 sequence (P29274 whole entry)": "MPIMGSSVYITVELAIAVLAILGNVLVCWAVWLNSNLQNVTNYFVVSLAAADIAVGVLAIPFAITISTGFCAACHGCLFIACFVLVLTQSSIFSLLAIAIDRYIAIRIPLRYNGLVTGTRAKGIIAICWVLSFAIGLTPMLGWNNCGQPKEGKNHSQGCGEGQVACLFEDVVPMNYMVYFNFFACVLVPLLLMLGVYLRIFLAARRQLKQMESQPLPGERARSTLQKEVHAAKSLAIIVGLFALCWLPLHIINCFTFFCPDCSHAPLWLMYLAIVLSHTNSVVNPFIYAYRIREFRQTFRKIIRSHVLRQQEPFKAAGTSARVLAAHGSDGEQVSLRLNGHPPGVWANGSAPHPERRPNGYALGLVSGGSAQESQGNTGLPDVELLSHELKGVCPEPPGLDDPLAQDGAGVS", "assay": "Eurofins Hit Profiling Screen PP70: adenosine A2A receptor binding", "conditions": "5 μM", "protocol": "as §1\nThis assay measured binding of [^3H]CGS‐21680 to human adenosine A2A receptors. HEK 293 cells stably transfected with a plasmid encoding the human adenosine A2A receptor were used to prepare membranes in modified Tris–HCl pH 7.4 buffer using standard techniques. A 15 μg aliquot of membrane was incubated with […] [^3H]CGS‐21680 for 90 min at 25°C. Non‐specific binding was estimated in the presence of 50 μM NECA. Membranes were filtered and washed three times, and the filters were counted to determine [^3H]CGS‐21680 specifically bound."}, "[4]": {"target": "T2, Human recombinant prostanoid EP4 receptors (Homo sapiens, UniProt P35408)", "T2 construct": "host or cells: Chem-1 cells", "T2 sequence (P35408 whole entry)": "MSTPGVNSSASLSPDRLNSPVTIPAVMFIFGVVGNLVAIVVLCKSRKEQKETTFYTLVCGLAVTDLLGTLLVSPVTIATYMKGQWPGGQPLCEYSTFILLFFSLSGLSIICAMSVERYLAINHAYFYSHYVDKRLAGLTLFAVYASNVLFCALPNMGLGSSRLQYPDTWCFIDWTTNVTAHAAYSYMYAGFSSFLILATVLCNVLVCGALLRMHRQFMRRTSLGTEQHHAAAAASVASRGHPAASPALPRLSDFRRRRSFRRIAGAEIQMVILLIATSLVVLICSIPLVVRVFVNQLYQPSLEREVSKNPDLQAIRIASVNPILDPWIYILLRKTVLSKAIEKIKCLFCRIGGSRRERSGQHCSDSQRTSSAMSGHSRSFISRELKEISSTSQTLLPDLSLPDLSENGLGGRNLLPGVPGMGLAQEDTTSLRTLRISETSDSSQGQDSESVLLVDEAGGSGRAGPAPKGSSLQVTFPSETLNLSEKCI", "assay": "Eurofins Hit Profiling Screen PP70: prostanoid EP4 receptor binding", "conditions": "5 μM", "protocol": "as §1\nHuman recombinant prostanoid EP4 receptors expressed in Chem‐1 cells were used in modified MES buffer pH 6.0. A 3 μg·ml^−1 (see footnote 1) aliquot was incubated with 1 nM [^3H]PGE2 for 120 min at 25°C. Non‐specific binding was estimated in the presence of 10 μM PGE2 . Receptors were filtered and washed, and the filters were then counted to determine [^3H]PGE2 specifically bound."}, "[5]": {"tested_on": "HEK‐TREx control (null) cells", "assay": "Manual whole-cell patch clamp on control cells", "format": "cell-based, human", "conditions": "10 μM, HEK-TREx cells without PIEZO1 transfection", "protocol": "(§2) For manual patch clamp, macroscopic transmembrane ionic currents of mPIEZO1 HEK‐TREx cells (or control HEK‐TREx cells) were recorded using the standard whole‐cell configuration for patch clamp in voltage‐clamp mode. For studies of HEK 293 cells overexpressing PIEZO2 (or control HEK 293 cells), the outside‐out patch configuration was used in voltage‐clamp mode. All recordings were made using an Axopatch 200B amplifier (Axon Instruments, Inc., USA) equipped with Digidata 1550B hosted by a PC running pClamp 10.7 software (Molecular Devices, USA) at room temperature. The cells were maintained during the experiment in an external salt buffer solution (SBS) of the following composition: 135 mM NaCl, 5 mM KCl, 1.5 mM CaCl2, 1.2 mM MgCl2, 8 mM D‐glucose and 10 mM HEPES (titrated to pH 7.4 with NaOH). […] For outside‐out experiments, Na2ATP and Na2GTP were omitted. For whole‐cell experiments, cells were held at 0 mV and current amplitude was monitored by application of ramp voltage protocol from −100 to +100 mV at 10 s intervals. Currents were measured at −100 and +100 mV. Test compounds were applied in the external solution using a bath perfusion system. SBS flow was applied to the cells for 1 min before the addition of compounds. […] Data were analysed and plotted using pClamp 10.7 and Microcal Origin 2018 (Microcal Software, USA)."}, "mPIEZO1": {"target": "T3, mPIEZO1 (Mus musculus, UniProt E2JF22)", "T3 construct": "expressed in transfected cells", "T3 sequence (E2JF22 whole entry)": "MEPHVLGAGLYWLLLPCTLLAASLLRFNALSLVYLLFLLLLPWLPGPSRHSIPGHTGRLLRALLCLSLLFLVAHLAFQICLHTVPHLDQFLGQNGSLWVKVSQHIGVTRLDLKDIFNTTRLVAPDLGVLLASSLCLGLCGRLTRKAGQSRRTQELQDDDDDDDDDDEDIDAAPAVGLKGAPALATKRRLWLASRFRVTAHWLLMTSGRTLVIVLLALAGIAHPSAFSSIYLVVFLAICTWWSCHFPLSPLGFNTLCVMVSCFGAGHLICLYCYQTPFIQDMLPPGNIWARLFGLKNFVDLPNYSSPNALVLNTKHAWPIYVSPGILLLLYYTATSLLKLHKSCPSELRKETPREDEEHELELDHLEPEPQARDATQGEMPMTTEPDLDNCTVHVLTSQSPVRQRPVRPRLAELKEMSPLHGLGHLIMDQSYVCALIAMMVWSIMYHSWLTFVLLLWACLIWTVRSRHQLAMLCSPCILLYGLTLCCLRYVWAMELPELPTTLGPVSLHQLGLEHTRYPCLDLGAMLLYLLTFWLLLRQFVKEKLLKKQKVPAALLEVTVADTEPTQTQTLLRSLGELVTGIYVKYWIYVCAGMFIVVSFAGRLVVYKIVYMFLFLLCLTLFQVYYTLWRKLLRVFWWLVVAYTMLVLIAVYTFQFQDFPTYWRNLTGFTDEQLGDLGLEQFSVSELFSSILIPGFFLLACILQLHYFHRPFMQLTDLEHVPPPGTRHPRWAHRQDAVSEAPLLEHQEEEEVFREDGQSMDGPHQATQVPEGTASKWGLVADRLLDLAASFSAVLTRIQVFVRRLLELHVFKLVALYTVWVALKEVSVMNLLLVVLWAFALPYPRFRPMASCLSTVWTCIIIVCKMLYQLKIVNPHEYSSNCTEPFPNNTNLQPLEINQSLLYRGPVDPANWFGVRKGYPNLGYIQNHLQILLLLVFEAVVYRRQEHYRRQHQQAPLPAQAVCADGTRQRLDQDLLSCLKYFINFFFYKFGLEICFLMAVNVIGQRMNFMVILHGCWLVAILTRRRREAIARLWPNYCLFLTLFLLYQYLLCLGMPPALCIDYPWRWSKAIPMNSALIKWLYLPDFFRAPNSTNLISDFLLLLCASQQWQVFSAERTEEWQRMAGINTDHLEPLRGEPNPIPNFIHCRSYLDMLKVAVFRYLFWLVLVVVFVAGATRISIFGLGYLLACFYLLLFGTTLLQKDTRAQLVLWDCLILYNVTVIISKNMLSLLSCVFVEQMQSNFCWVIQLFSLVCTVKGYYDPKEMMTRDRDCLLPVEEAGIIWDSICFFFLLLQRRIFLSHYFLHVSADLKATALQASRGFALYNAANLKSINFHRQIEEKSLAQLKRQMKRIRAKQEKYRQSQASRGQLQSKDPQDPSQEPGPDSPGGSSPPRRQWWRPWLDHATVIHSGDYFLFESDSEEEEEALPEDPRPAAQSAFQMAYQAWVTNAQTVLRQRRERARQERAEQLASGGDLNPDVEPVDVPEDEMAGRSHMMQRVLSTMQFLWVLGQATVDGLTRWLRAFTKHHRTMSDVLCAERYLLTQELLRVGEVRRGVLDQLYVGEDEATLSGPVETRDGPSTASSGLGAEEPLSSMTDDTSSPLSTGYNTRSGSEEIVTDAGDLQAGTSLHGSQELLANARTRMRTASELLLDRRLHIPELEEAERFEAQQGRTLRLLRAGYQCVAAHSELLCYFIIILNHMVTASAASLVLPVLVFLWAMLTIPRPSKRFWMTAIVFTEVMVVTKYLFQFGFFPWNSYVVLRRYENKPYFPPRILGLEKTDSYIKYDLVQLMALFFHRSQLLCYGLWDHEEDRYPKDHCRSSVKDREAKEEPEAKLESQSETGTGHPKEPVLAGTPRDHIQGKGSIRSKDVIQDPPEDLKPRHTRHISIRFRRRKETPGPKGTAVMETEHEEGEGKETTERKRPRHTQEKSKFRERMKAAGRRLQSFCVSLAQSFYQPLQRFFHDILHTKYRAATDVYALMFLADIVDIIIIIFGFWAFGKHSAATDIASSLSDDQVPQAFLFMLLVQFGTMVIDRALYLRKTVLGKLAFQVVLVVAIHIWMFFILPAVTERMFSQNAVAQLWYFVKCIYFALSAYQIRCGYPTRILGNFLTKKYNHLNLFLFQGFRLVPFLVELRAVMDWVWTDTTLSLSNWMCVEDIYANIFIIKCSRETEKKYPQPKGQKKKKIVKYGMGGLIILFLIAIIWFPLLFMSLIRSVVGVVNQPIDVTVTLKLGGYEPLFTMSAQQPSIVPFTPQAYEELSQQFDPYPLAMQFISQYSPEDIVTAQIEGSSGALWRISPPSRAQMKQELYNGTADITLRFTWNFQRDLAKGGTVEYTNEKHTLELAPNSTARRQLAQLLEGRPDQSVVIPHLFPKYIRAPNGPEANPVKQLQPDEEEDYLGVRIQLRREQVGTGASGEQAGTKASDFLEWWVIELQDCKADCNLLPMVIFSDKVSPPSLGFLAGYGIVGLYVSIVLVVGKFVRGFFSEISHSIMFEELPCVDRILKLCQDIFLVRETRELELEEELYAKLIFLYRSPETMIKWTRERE", "assay": "Manual whole-cell patch clamp on mPIEZO1-TREx cells", "format": "cell-based", "conditions": "10 μM, ramp −100 to +100 mV", "protocol": "as §2"}, "mouse PIEZO2 (mPIEZO2)": {"tested_on": "mouse PIEZO2 (mPIEZO2)", "parameters": "method as in Syeda et al., 2015", "conditions": "mPIEZO2 overexpressed in HEK 293 cells; ref Syeda et al., 2015; cited from earlier work"}}, "note": "Entries after “also recorded” stand apart in the source; their conditions may differ."}
{"compound": "O=C([O-])c1ccc(-c2nnc(SCc3c(Cl)cccc3Cl)s2)cc1.[K+]", "note": "[KC289]", "values": [{"measurement": "Fraction bound to plasma proteins", "setting": "[1]; mouse plasma, 5 μM", "result": 99.35, "unit": "%"}, {"measurement": "Binding to the other proteins of the screen", "setting": "[2]", "result": "little or no binding"}, {"measurement": "Binding to adenosine A2A receptors", "setting": "[3]", "result": "modest interaction"}, {"measurement": "Binding to prostanoid EP4 receptors", "setting": "[4]", "result": "modest interaction"}]}
{"compound": "O=C(O)c1ccc(-c2nnc(SCc3c(Cl)cccc3Cl)s2)cc1", "note": "[KC159]", "values": [{"measurement": "fraction unbound at 4 h, 5 μM", "setting": "[1]; mouse, plasma, read-out: Fraction bound to plasma proteins (converted)", "result": 0.006}, {"measurement": "Whole-cell current in null cells", "setting": "[5]", "result": "not null cells"}, {"measurement": "Whole-cell current", "setting": "mPIEZO1", "result": "increases current"}]}
{"compound": "Clc1cccc(Cl)c1CSc1nnc(-c2cnccn2)s1", "note": "[Yoda1, 2‐[5‐[[(2,6‐dichlorophenyl)methyl]thio]‐1,3,4‐thiadiazol‐2‐yl]pyrazine]", "values": [{"measurement": "Activation of PIEZO2", "setting": "mouse PIEZO2 (mPIEZO2)", "result": "does not activate; also recorded: not to activate"}]}
